Assay results as given in ChEMBL document CHEMBL4052721, “Gerontoxanthone B from Maclura cochinchinensis var. gerontogea exhibits anti-inflammatory potential as an aryl hydrocarbon receptor agonist” (Bioorg Med Chem, 2017).
Values belong to the compound of their own block, whether it stands above or below them.

What was measured:
Assay type in all cases: cell-based; call rule not given here
[1] = biological target: T1, Aryl hydrocarbon receptor (Homo sapiens, UniProt P35869); experiment: Agonist activity at AhR in human HepG2 cells at 1 to 10 uM after 42 hrs by luciferase reporter gene assay relative to control
T1 sequence (P35869 whole entry): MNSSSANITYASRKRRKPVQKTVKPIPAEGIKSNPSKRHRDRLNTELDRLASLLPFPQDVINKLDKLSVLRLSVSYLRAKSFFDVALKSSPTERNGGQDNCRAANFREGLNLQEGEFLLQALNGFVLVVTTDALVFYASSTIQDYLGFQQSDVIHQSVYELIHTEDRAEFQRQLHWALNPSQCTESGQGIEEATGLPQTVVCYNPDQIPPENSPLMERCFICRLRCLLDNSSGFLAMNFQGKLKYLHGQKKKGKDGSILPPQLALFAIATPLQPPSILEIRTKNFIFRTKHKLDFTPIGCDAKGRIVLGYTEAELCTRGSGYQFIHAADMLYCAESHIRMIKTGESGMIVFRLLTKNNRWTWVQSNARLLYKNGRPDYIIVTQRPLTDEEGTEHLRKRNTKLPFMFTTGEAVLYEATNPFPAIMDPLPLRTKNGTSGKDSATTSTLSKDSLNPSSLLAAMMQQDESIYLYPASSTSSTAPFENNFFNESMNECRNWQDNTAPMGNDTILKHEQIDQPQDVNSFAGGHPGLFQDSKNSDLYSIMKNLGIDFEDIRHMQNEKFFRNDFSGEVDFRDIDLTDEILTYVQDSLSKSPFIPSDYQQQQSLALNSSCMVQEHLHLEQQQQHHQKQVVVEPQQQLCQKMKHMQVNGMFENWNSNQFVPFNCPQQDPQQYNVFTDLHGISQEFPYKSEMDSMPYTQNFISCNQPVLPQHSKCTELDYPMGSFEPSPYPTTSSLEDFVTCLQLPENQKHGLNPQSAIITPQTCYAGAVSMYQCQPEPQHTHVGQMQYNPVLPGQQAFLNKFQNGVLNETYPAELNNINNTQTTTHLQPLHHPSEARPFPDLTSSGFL

[2] = biological target: T1, Aryl hydrocarbon receptor; experiment: Agonist activity at AhR in human HepG2 cells at 5 to 20 nM after 42 hrs in presence of AhR antagonist GNF-351 by luciferase reporter gene assay
[3] = biological target: T1, Aryl hydrocarbon receptor; experiment: Agonist activity at AhR in human HepG2 cells at 5 to 20 nM after 42 hrs in presence of AhR antagonist 3',4'-DMF by luciferase reporter gene assay
[4] = biological target: T1, Aryl hydrocarbon receptor; experiment: Agonist activity at AhR in human HuH7 cells assessed as reduction in IL-1beta induced increase in SAA1 mRNA level at 10 nM pretreated for 20 hrs followed by Il-1beta addition measured after 4 hrs by qRT-PCR analysis; details: 0.01 µM
HepG2 [5] = experiment: Cytotoxicity against human HepG2 cells at 1 uM; details: hepg2, 1 µM
[6] = biological target: T1, Aryl hydrocarbon receptor; experiment: Agonist activity at AhR in human HepG2 cells at 10 uM after 42 hrs by luciferase reporter gene assay relative to control; details: read-out: FC
[7] = biological target: T1, Aryl hydrocarbon receptor; experiment: Agonist activity at AhR in human HuH7 cells assessed as reduction in IL-1beta induced increase in SAA1 mRNA level at 10 uM pretreated for 20 hrs followed by Il-1beta addition measured after 4 hrs by qRT-PCR analysis
HepG2 [8] = experiment: Cytotoxicity against human HepG2 cells at 20 uM; details: hepg2, 20 µM
[9] = biological target: T1, Aryl hydrocarbon receptor; experiment: Agonist activity at AhR in human HepG2 cells at 2.5 to 10 uM after 42 hrs in presence of AhR antagonist 3',4'-DMF by luciferase reporter gene assay
[10] = biological target: T1, Aryl hydrocarbon receptor; experiment: Agonist activity at AhR in human HepG2 cells at 2.5 to 10 uM after 42 hrs in presence of AhR antagonist GNF-351 by luciferase reporter gene assay
[11] = biological target: T1, Aryl hydrocarbon receptor; experiment: Agonist activity at AhR in human HepG2 cells after 42 hrs by luciferase reporter gene assay
[12] = biological target: T1, Aryl hydrocarbon receptor; experiment: Agonist activity at AhR in human HepG2 cells at 2.5 to 10 uM after 42 hrs in presence of AhR antagonist CH-223191 by luciferase reporter gene assay

fold change (FC) [1]: >= 2
SMILES: C=CC(C)(C)c1c(O)cc2oc3c(O)c(OCC=C(C)C)ccc3c(=O)c2c1O

SMILES: Clc1cc2c(cc1Cl)Oc1cc(Cl)c(Cl)cc1O2 [2,3,7,8-TETRACHLORODIBENZO-P-DIOXIN]
Activity [2]: Not Active
Activity [3]: Not Active
Activity [4]: Active

SMILES: CC1Oc2cc3oc4c(O)c5c(cc4c(=O)c3c(O)c2C1(C)C)C=CC(C)(C)O5 (stereo unspecified) [GERONTOXANTHONE A]
fold change (FC) [1]: >= 2
Activity (HepG2 [5]): Toxic

fold induction at 10 µM [6]: ≥ 2
SMILES: CC(C)=CCc1c(O)ccc2oc3c4c(cc(O)c3c(=O)c12)OC(C)(C)C=C4

SMILES: C=CC(C)(C)c1c(O)c(CC=C(C)C)c(O)c2c(=O)c3ccc(O)c(O)c3oc12 [GERONTOXANTHONE I]
fold induction at 10 µM [6]: ≥ 2

SMILES: C=CC(C)(C)c1c(O)cc2oc3c(O)c4c(cc3c(=O)c2c1O)C=CC(C)(C)O4 [GERONTOXANTHONE B]
fold change (FC) [1]: >= 2
Activity [7]: Active
Activity (HepG2 [8]): Toxic
Activity [9]: Not Active
Activity [10]: Not Active
Activity [11]: Dose-dependent effect
Activity [12]: Active

SMILES: CC(C)=CCc1c(O)cc(O)c2c(=O)c3c(CC=C(C)C)c(O)ccc3oc12 [GERONTOXANTHONE H]
fold change (FC) [1]: >= 2
